The values that follow come from patent US20260209219A1, “SUBSTITUTED TETRAHYDROPYRROLO-PYRIDINONE COMPOUNDS AND THEIR USE IN TREATING MEDICAL CONDITIONS” (Karuna Therapeutics, Inc., priority 2022, published 2026).

The target in one assay is T1, rM4 receptors (Rattus norvegicus, UniProt P08485).
T1 construct: expressed in transfected cells; host or cells: CHO cells
T1 sequence (P08485 1-478): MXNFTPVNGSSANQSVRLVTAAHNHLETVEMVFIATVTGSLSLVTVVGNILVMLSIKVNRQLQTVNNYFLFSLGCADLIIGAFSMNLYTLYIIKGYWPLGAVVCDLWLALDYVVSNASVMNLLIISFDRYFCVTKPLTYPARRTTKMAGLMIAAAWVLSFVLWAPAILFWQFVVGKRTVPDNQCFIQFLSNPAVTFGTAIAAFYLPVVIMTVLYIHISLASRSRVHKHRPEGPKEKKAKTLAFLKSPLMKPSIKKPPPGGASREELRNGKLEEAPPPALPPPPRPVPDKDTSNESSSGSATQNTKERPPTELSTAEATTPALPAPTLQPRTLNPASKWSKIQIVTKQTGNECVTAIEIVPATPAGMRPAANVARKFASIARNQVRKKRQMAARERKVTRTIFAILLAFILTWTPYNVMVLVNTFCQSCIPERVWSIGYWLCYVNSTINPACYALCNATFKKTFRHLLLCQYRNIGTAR
The assay can be described thus: Rat M4 PAM pERK assay. Type of assay: cell-based. Conditions: CHO cells expressing rM4; with EC20 of acetylcholine (10 nM final). As to the method: (§1) Chinese hamster ovary (CHO) cells expressing either hM4 or rM4 receptors were frozen in assay ready vials (5×10^6 cells/vial) after bulking-up in culture. The day before an assay, vial(s) were thawed and cells seeded in 384 well white proxiplates at 1000/well for hM4 cells and at 2000/well for rM4 cells, in 10 μL of growth media (Hams/F12 with glutamax and 10% FCS) and incubated overnight at 37° C./5% CO2.
(§2) On the following morning, the growth media was removed by ‘flicking out’ over a bin, patting the inverted plate onto tissue, and then replacing with 10 μL of wash media (Hams/F12 with glutamax and 8 mM HEPES, NB: serum free). Then, the wash media was removed in the same way and replaced with 8 μL/well of the serum free media. Plates were then re-incubated for a further 4 hours at 37° C./5% CO2.
(§3) Compounds for testing were solubilized to 10 mM in DMSO and compound addition plates, consisting of ten-point concentration response curves (CRC) in duplicate points (10 μM top concentration, ½ log dilution series), were prepared by acoustic dispensing and the compound management group.
(§4) After the 4-hour incubation in serum free media, a 4 μL aliquot of the 3× compound solution containing an EC20 of acetylcholine (10 nM final concentration) was added to the cell plate using a 384 well plate to plate transfer. Then, the plate lid was replaced, and the cells incubated for 5 mins at 37° C./5% CO2. Following this final incubation, all cellular processes were stopped by the addition of 4 μL/well of lysis and blocking buffer and plates were incubated for 30 minutes at RT on an orbital shaker (gentle setting). Then, a final addition of 4 μL/well of antibody detection mix, containing both the Europium-Cryptate (donor) and d2 (acceptor) tagged detection components, was added followed by a further 2-hour incubation at RT, and then the plate was read using a TR-FRET (time resolved fluorescence resonance energy transfer) based protocol.

The target in a further assay is T2, hM4 receptors (Homo sapiens, UniProt P08173).
T2 construct: expressed in transfected cells; host or cells: CHO cells
T2 sequence (P08173 1-479): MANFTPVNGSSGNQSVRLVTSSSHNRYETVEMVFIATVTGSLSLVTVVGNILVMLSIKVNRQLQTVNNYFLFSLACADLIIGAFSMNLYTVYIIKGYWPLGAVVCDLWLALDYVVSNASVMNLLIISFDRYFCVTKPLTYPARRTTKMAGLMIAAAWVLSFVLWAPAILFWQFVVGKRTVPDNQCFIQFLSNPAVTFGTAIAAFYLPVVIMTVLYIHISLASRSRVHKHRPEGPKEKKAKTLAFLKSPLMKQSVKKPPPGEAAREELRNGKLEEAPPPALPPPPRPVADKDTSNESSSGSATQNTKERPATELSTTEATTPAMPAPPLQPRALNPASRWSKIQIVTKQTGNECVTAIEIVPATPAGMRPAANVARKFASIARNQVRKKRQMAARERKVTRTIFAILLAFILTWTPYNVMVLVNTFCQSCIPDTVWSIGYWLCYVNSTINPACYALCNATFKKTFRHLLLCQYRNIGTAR
In words: Human M4 PAM pERK assay. Type of assay: cell-based. Particulars: CHO cells expressing hM4; with EC20 of acetylcholine (10 nM final). The protocol: as §1, §2, §3, §4

In a further assay the target is T3, human M4 receptor (Homo sapiens, UniProt P08173).
T3 construct: expressed in transfected cells; host or cells: CHO-K1 cells (membrane preparation)
T3 sequence (P08173 1-479): T2 sequence (P08173 1-479)
The assay can be described thus: M4 GTPγS PAM assay. Type of assay: biochemical. Particulars: membranes of CHO-K1 cells stably expressing human M4; EC20 acetylcholine 40 nM. The protocol: The M4 GTPγS PAM method was used. Membranes were prepared for GTPgS binding assays from CHO-K1 cells stably expressing human M4 receptor. Briefly, cells were grown in 5-layer cell culture flasks. Cells were washed with 50 mL of PBS and then dissociated with 0.05% trypsin. Dissociated cells were then collected by centrifugation at 650×g for 8 minutes at 4° C. Pellets were washed again in PBS by centrifugation and resuspended in 30 mL of 20 mM HEPES, 10 mM EDTA, pH 7.4. After sitting on ice for 30 min, membranes were collected by centrifugation at 50000×g for 15′ at 4° C., resuspended in 30 mL of 20 mM HEPES, 0.1 mM EDTA, pH 7.4 and collected again by centrifugation. Pellets were then washed twice by centrifugation in 30 mL of 20 mM HEPES, pH 7.4, and stored at −80° C. until the day of the assay. On the day of the assay, pellets were thawed on ice and resuspended in 1 mL of 20 mM HEPES, pH 7.4, 10 mM MgCl2, 100 mM NaCl using dounce homogenization. Membrane protein concentration is determined by BCA protein assay (Promega, Madison, WI) according to Promega guidelines.
On the day of the assay, serial dilutions of test PAM compounds were brought up in assay buffer (20 mM HEPES, 10 mM MgCl2, 100 mM NaCl) at 4× final assay concentration. […] of membrane homogenates (containing […] of membrane protein) were prepared in assay buffer supplemented with GDP at 4× final assay concentration (final assay concentration of GDP is 5 μM for M2 and 0.1 μM for M4) and dispensed into 96 well polypropylene, U-bottom Greiner plates. […] of vehicle or test PAM compound at 4× of final assay concentration diluted in the assay buffer were added to membrane and plates are incubated for 10-15 minutes at room temperature with gentle shaking. Then, […] of EC20 acetylcholine in assay buffer at 4× final assay concentration was added to assay plates (EC20 final assay concentrations was 40 nM for human M4).
Plates were then incubated, with shaking, for an additional 10-15 minutes. 25 mL of 0.4 nM ^35S-GTP (Perkin Elmer, Waltham, MA) in assay buffer was added to assay mixtures. The binding reaction is left on the shaker for 1 hour at room temperature. Membranes in assay reactions were then transferred to GF/C filter plates (Unifilter, Perkin Elmer) and washed three times using a FilterMate Harvester (Perkin Elmer) with cold assay buffer containing no GDP. Filter plates were then dried at 40° C. overnight followed by the addition of […] of Beta Plate Scintillation liquid. Plates are top and bottom sealed before being read on TopCount scintillation counter (Perkin Elmer, Waltham, MA).

The EC50 is the concentration that produces a half-maximal response. Low values mean higher potency in that assay, high ones lower potency in that assay.

`Cc1cc(=O)n(C)c2c1CN(C(=O)CC1CC1c1cccc(C3COC3)c1)C2` (stereo not drawn) [Compound I-12]: the EC50 was 500 to 2000 nM on rM4 receptors, 100 to 500 nM on hM4 receptors and over 2000 nM on human M4 receptor.

Take `Cc1c2c(n(C)c(=O)c1Cl)CN(C(=O)CC1CC1c1cc(F)cc(F)c1)C2` (single isomer, unassigned) [Compound I-36]: the EC50 on rM4 receptors, at hM4 receptors and at human M4 receptor was under 100 nM each time.

Consider `Cc1cc(=O)n(C)c2c1CN(C(=O)CC1CC1c1ccc(C(F)(F)F)nc1)C2` (single isomer, unassigned) [Compound I-5], for which the EC50 at rM4 receptors was under 100 nM; on hM4 receptors it was 100 to 500 nM; at human M4 receptor, 500 to 2000 nM.

As to `Cc1cc(=O)n(C)c2c1CN(C(=O)CC1CC1c1ccc(C(F)(F)F)cc1)C2` (single isomer, unassigned) [Compound I-6], the EC50 on rM4 receptors, at hM4 receptors and on human M4 receptor was over 2000 nM in each case.
